{"source": "patent US12077503B2", "about": "“Substituted cyclic amides and their use as herbicides” (FMC CORPORATION, priority 2015, dated 2024)", "type_in_all_cases": "in vivo", "key": {"[1]": {"test_system": "Panicum, fall (fall Panicum, Panicum dichotomiflorum)", "test": "Test E preemergence", "conditions": "scale 0 to 100", "procedure,_shortened": "(§1)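 Seeds sown in silt loam treated preemergence, or plants 2 to 18 cm tall in peat-based potting medium treated postemergence, with test chemical in a non-phytotoxic solvent mixture containing surfactant. Kept in greenhouse 14 to 21 d, then visually rated against controls on a 0–100 scale (0 no effect, 100 complete control).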"}, "[2]": {"test_system": "goosegrass (Eleusine indica)", "test": "Test E preemergence", "conditions": "scale 0 to 100", "procedure,_shortened": "as §1"}, "[3]": {"test_system": "foxtail, giant (giant foxtail, Setaria faberii)", "test": "Test E preemergence", "conditions": "scale 0 to 100", "procedure,_shortened": "as §1"}, "[4]": {"test_system": "horseweed (Conyza canadensis)", "test": "Test E preemergence", "conditions": "scale 0 to 100", "procedure,_shortened": "as §1"}, "[5]": {"test_system": "ragweed (common ragweed, Ambrosia elatior)", "test": "Test E preemergence", "conditions": "scale 0 to 100", "procedure,_shortened": "as §1"}, "[6]": {"test_system": "crabgrass, Brazil (Brazilian crabgrass, Digitaria horizontalis)", "test": "Test E preemergence", "conditions": "scale 0 to 100", "procedure,_shortened": "as §1"}, "[7]": {"test_system": "beggarticks (hairy beggarticks, Bidens pilosa)", "test": "Test E preemergence", "conditions": "scale 0 to 100", "procedure,_shortened": "as §1"}, "[8]": {"test_system": "surinam grass (Brachiaria decumbens)", "test": "Test E preemergence", "conditions": "scale 0 to 100", "procedure,_shortened": "as §1"}, "corn (Zea mays)": {"test_system": "corn (Zea mays)", "test": "Test E preemergence", "conditions": "scale 0 to 100", "procedure,_shortened": "as §1"}, "[9]": {"test_system": "ryegrass, Italian (Italian ryegrass, Lolium multiflorum)", "test": "Test E preemergence", "conditions": "scale 0 to 100", "procedure,_shortened": "as §1"}, "[10]": {"test_system": "pigweed, palmer (palmer pigweed, Amaranthus palmeri)", "test": "Test E preemergence", "conditions": "scale 0 to 100", "procedure,_shortened": "as §1"}, "soybean (Glycine max) [11]": {"test_system": "soybean (Glycine max)", "test": "Test E preemergence", "conditions": "scale 0 to 100", "procedure,_shortened": "as §1"}, "[12]": {"test_system": "foxtail, green (green foxtail, Setaria viridis)", "test": "Test E preemergence", "conditions": "scale 0 to 100", "procedure,_shortened": "as §1"}, "Kochia (Kochia scoparia)": {"test_system": "Kochia (Kochia scoparia)", "test": "Test E preemergence", "conditions": "scale 0 to 100", "procedure,_shortened": "as §1"}, "soybean (Glycine max) [13]": {"test_system": "soybean (Glycine max)", "test": "Test C postemergence", "conditions": "scale 0 to 100, 0 no effect, 100 complete control", "text": "Seeds of plant species selected from blackgrass (Alopecurus myosuroides), ryegrass, Italian (Italian ryegrass, Lolium multiflorum), wheat (winter wheat, Triticum aestivum), Galium (catchweed bedstraw, Galium aparine), corn (Zea mays), crabgrass, large (large crabgrass, Digitaria sanguinalis), foxtail, giant (giant foxtail, Setaria faberii), johnsongrass (Sorghum halepense), lambsquarters (Chenopodium album), morningglory (Ipomoea coccinea), nutsedge, yellow (yellow nutsedge, Cyperus esculentus), pigweed (Amaranthus retroflexus), ragweed (common ragweed, Ambrosia elatior), soybean (Glycine max), barnyardgrass (Echinochloa crus-galli), oilseed rape (Brassica napus), waterhemp (common waterhemp, Amaranthus rudis) and velvetleaf (Abutilon theophrasti) were planted into a blend of loam soil and sand and treated preemergence with test chemicals formulated in a non-phytotoxic solvent mixture which included a surfactant.\nAt the same time, plants selected from these crop and weed species and also Kochia (Kochia scoparia), oat, wild (wild oat, Avena fatua), and chickweed (common chickweed, Stellaria media) were planted in pots containing Sunshine Redi-Earth® planting medium comprising spaghnum peat moss, vermiculite, starter nutrients and dolomitic limestone and treated with postemergence applications of test chemicals formulated in the same manner. Plants ranged in height from 2 to 18 cm (1- to 4-leaf stage) for postemergence treatments. Treated plants and controls were maintained in a greenhouse for 13 to 15 d, after which time all species were compared to controls and visually evaluated. Plant response ratings, summarized in Table C, are based on a scale of 0 to 100 where 0 is no effect and 100 is complete control. A dash (-) response means no test result."}}}
{"smiles": "CN1CC(c2cccc(OC(F)(F)C(F)F)c2)C(C(=O)Nc2cccc(F)c2F)C1=O", "note": "(stereo not drawn) [Compound 392]", "values": [{"measurement": "Plant response rating: Panicum, Fall", "setting": "[1]; 31 g ai/ha", "result": 95}, {"measurement": "Plant response rating: Panicum, Fall", "setting": "[1]; 62 g ai/ha", "result": 98}, {"measurement": "Plant response rating: Panicum, Fall", "setting": "[1]; 125 g ai/ha", "result": 98}, {"measurement": "Plant response rating: Panicum, Fall", "setting": "[1]; 250 g ai/ha", "result": 98}, {"measurement": "Plant response rating: Goosegrass", "setting": "[2]; 31 g ai/ha", "result": 85}, {"measurement": "Plant response rating: Goosegrass", "setting": "[2]; 62 g ai/ha", "result": 90}, {"measurement": "Plant response rating: Goosegrass", "setting": "[2]; 125 g ai/ha", "result": 95}, {"measurement": "Plant response rating: Goosegrass", "setting": "[2]; 250 g ai/ha", "result": 95}, {"measurement": "Plant response rating: Foxtail, Giant", "setting": "[3]; 31 g ai/ha", "result": 90}, {"measurement": "Plant response rating: Foxtail, Giant", "setting": "[3]; 62 g ai/ha", "result": 95}, {"measurement": "Plant response rating: Foxtail, Giant", "setting": "[3]; 125 g ai/ha", "result": 98}, {"measurement": "Plant response rating: Foxtail, Giant", "setting": "[3]; 250 g ai/ha", "result": 98}, {"measurement": "Plant response rating: Horseweed", "setting": "[4]; 31 g ai/ha", "result": 0}, {"measurement": "Plant response rating: Horseweed", "setting": "[4]; 62 g ai/ha", "result": 0}, {"measurement": "Plant response rating: Horseweed", "setting": "[4]; 125 g ai/ha", "result": 98}, {"measurement": "Plant response rating: Horseweed", "setting": "[4]; 250 g ai/ha", "result": 100}, {"measurement": "Plant response rating: Ragweed", "setting": "[5]; 31 g ai/ha", "result": 0}, {"measurement": "Plant response rating: Ragweed", "setting": "[5]; 62 g ai/ha", "result": 0}, {"measurement": "Plant response rating: Ragweed", "setting": "[5]; 125 g ai/ha", "result": 0}, {"measurement": "Plant response rating: Ragweed", "setting": "[5]; 250 g ai/ha", "result": 65}, {"measurement": "Plant response rating: Crabgrass, Brazil", "setting": "[6]; 31 g ai/ha", "result": 98}, {"measurement": "Plant response rating: Crabgrass, Brazil", "setting": "[6]; 62 g ai/ha", "result": 98}, {"measurement": "Plant response rating: Crabgrass, Brazil", "setting": "[6]; 125 g ai/ha", "result": 98}, {"measurement": "Plant response rating: Crabgrass, Brazil", "setting": "[6]; 250 g ai/ha", "result": 98}, {"measurement": "Plant response rating: Beggarticks", "setting": "[7]; 31 g ai/ha", "result": 0}, {"measurement": "Plant response rating: Beggarticks", "setting": "[7]; 62 g ai/ha", "result": 0}, {"measurement": "Plant response rating: Beggarticks", "setting": "[7]; 125 g ai/ha", "result": 0}, {"measurement": "Plant response rating: Beggarticks", "setting": "[7]; 250 g ai/ha", "result": 0}, {"measurement": "Plant response rating: Surinam Grass", "setting": "[8]; 31 g ai/ha", "result": 0}, {"measurement": "Plant response rating: Surinam Grass", "setting": "[8]; 62 g ai/ha", "result": 0}, {"measurement": "Plant response rating: Surinam Grass", "setting": "[8]; 125 g ai/ha", "result": 15}, {"measurement": "Plant response rating: Surinam Grass", "setting": "[8]; 250 g ai/ha", "result": 30}, {"measurement": "Plant response rating: Corn", "setting": "corn (Zea mays); 31 g ai/ha", "result": 0}, {"measurement": "Plant response rating: Corn", "setting": "corn (Zea mays); 62 g ai/ha", "result": 15}, {"measurement": "Plant response rating: Corn", "setting": "corn (Zea mays); 125 g ai/ha", "result": 50}, {"measurement": "Plant response rating: Corn", "setting": "corn (Zea mays); 250 g ai/ha", "result": 70}, {"measurement": "Plant response rating: Ryegrass, Italian", "setting": "[9]; 31 g ai/ha", "result": 0}, {"measurement": "Plant response rating: Ryegrass, Italian", "setting": "[9]; 62 g ai/ha", "result": 10}, {"measurement": "Plant response rating: Ryegrass, Italian", "setting": "[9]; 125 g ai/ha", "result": 60}, {"measurement": "Plant response rating: Ryegrass, Italian", "setting": "[9]; 250 g ai/ha", "result": 70}, {"measurement": "Plant response rating: Pigweed, Palmer", "setting": "[10]; 31 g ai/ha", "result": 0}, {"measurement": "Plant response rating: Pigweed, Palmer", "setting": "[10]; 62 g ai/ha", "result": 20}, {"measurement": "Plant response rating: Pigweed, Palmer", "setting": "[10]; 125 g ai/ha", "result": 35}, {"measurement": "Plant response rating: Pigweed, Palmer", "setting": "[10]; 250 g ai/ha", "result": 90}, {"measurement": "Plant response rating: Soybean", "setting": "soybean (Glycine max) [11]; 31 g ai/ha", "result": 0}, {"measurement": "Plant response rating: Soybean", "setting": "soybean (Glycine max) [11]; 62 g ai/ha", "result": 0}, {"measurement": "Plant response rating: Soybean", "setting": "soybean (Glycine max) [11]; 125 g ai/ha", "result": 20}, {"measurement": "Plant response rating: Soybean", "setting": "soybean (Glycine max) [11]; 250 g ai/ha", "result": 25}, {"measurement": "Plant response rating: Foxtail, Green", "setting": "[12]; 31 g ai/ha", "result": 65}, {"measurement": "Plant response rating: Foxtail, Green", "setting": "[12]; 62 g ai/ha", "result": 90}, {"measurement": "Plant response rating: Foxtail, Green", "setting": "[12]; 125 g ai/ha", "result": 95}, {"measurement": "Plant response rating: Foxtail, Green", "setting": "[12]; 250 g ai/ha", "result": 98}, {"measurement": "Plant response rating: Kochia", "setting": "Kochia (Kochia scoparia); 31 g ai/ha", "result": 85}, {"measurement": "Plant response rating: Kochia", "setting": "Kochia (Kochia scoparia); 62 g ai/ha", "result": 90}, {"measurement": "Plant response rating: Kochia", "setting": "Kochia (Kochia scoparia); 125 g ai/ha", "result": 80}, {"measurement": "Plant response rating: Kochia", "setting": "Kochia (Kochia scoparia); 250 g ai/ha", "result": 90}]}
{"smiles": "CN1CC(c2ccc(F)c(F)c2)C(C(=O)Nc2ccccc2S(C)(=O)=O)C1=O", "note": "(stereo not drawn) [Compound 640]", "values": [{"measurement": "Plant response rating, Soybean", "setting": "soybean (Glycine max) [13]; 31 g ai/ha", "result": 65}, {"measurement": "Plant response rating, Soybean", "setting": "soybean (Glycine max) [13]; 62 g ai/ha", "result": 10}, {"measurement": "Plant response rating, Soybean", "setting": "soybean (Glycine max) [13]; 125 g ai/ha", "result": 10}, {"measurement": "Plant response rating, Soybean", "setting": "soybean (Glycine max) [13]; 250 g ai/ha", "result": 5}]}
